Test results as given in patent publication US8044053B2, “Sulfonamide substituted pyrazoline compounds, their preparation and use as CB1 modulators” (Laboratories del Dr. Esteve, S.A., priority 2006, dated 2011).

Key:
[1] = target: CB1-receptor (UniProt P20272); assay: In-vitro determination of affinity (binding) to CB1-receptors, radioligand [3H]-CP55940; parameters: % inh; 10^−7 M; compound at 10^−7 M; species or system human or rat; conditions: compound at 10^−7 M
Protocol: (§1) I. In-Vitro Determination of Affinity to CB1/CB2-Receptors
(§2) The in-vitro determination of the affinity of the inventive substituted pyrazoline compounds to CB1/CB2-Rezeptors is carried out as described in the publication of Ruth A. Ross, Heather C. Brockie et al., “Agonist-inverse agonist characterisation at CB1 and CB2 cannabinoid receptors of L-759633, L759656 and AM630”, British Journal of Pharmacology, 126, 665-672, (1999), whereby the transfected human CB1 and CB2 receptors of Receptor Biology, Inc. are used. The radioligand used for both receptors is [^3H]-CP55940. The respective parts of the description is hereby incorporated by reference and forms part of the present disclosure.
(§3) Rat Cerebellum CB1 Binding
(§4) Binding affinity to CB1 receptor was evaluated according to a modification of the method described by Govaerts et al., Eur J Pharmac Sci 23, 233-243 (2004). The respective parts of the description is hereby incorporated by reference and forms part of the present disclosure.
(§5) Briefly, cerebellum from male wistar rats (250-300 g) were carefully dissected on ice and homogenates were prepared with Potter-Helveheim in a cold 50 mM Tris-HCl solution containing 5 mM MgCl2, 1 mM EDTA and 0.25 M sucrose, pH 7.4. The suspension was centrifuged at 1,000×g for 5 minutes. The supernatants were collected and centrifuged 50,000×g for 15 minutes. The resulting pellets were then resuspended in Tris-HCl buffer without sucrose, homogenised and incubated for 15 min at 37° C. in an orbital shaker bath and centrifuged again at 50,000×g for 15 min. Pellets were weighted, resuspended in Tris-HCl buffer without sucrose, homogenised with Ultraturrax at 13,500 rpm for 3×5 seconds and alicuoted in 0.9 ml volumes in Eppendorf tubes. Alicuotes were centrifuged at 20,800×g for 5 minutes, supernatants discarded and pellets were frozen at −80° C. until use. Total protein concentration was determined using the Bio-Rad Lowry method based kit. Competitive binding experiments were performed in presence of 1 nM [^3H]-CP 55,940 in siliconised glass tubes containing 100 μg protein/tube resuspended in 1 ml final volume of 50 mM Tris-HCl, 5 mM MgCl2, 1 mM EDTA, 0.5% (w/v) bovine serum albumin, pH 7.4. Compounds were present at various concentrations and the non specific binding was determined in the presence of 10 μM HU-210. After 1 hour incubation at 30° C., the suspension was rapidly filtered through 0.5% PEI pre-treated GF/B fiber filters on a 96-well harvester and washed 3 times with 3 ml ice-cold binding buffer without bovine serum albumin. Radioactivity on filters was measured with Wallac Winspectral 1414 counter by liquid scintillation in 6 ml Ecoscint H (National Diagnostics, U.K.). Assays were made in triplicates.
(§6) Binding data were analysed by non-linear regression with the software GraphPad Prism Version 3.03.
(§7) The binding of the pyrazoline compounds of general formulae I, Ia and Ib to CB1-receptors was determined according to the method described in the section Pharmacological Methods, Part I.

[2] = target: CB1-receptor (UniProt P20272); assay: as above; parameters: IC50; Ki; species or system human or rat; conditions: Pharmacological Methods Part I
Protocol: as §1, §2, §3, §4, §5, §6, §7

| SMILES | % inh. 10^−7 M [1] [%] | IC50 [2] [nM] | Ki [2] [nM] |
| --- | --- | --- | --- |
| CCS(=O)(=O)NCC1=NN(c2ccc(Cl)cc2Cl)C(c2ccc(Cl)cc2)C1 (stereo not shown) [Example 14, Ethanesulfonic acid [5-(4-chloro-phenyl)-1-(2,4-dichloro-phenyl)-4,5-dihydro-1H-pyrazol-3-ylmethyl]-amide] | 76.6 | 458 |  |
| O=S(=O)(NCC1=NN(c2ccc(Cl)cc2Cl)C(c2ccc(Cl)cc2)C1)c1cccc(C(F)(F)F)c1 (stereo not shown) [Example 18, N-[5-(4-Chloro-phenyl)-1-(2,4-dichloro-phenyl)-4,5-dihydro-1H-pyrazol-3-ylmethyl]-3-trifluoromethyl-benzenesulfonamide] | 26.1 | 140 |  |
| CCCS(=O)(=O)NCC1=NN(c2ccc(Cl)cc2Cl)C(c2ccc(Cl)cc2)C1 (stereo not shown) [Example 21, Propane-1-sulfonic acid [5-(4-chloro-phenyl)-1-(2,4-dichloro-phenyl)-4,5-dihydro-1H-pyrazol-3-ylmethyl]-amide] | 80.6 | 263 |  |
| O=S(=O)(NCC1=NN(c2ccc(Cl)cc2Cl)C(c2ccc(Cl)cc2)C1)c1ccccc1Cl (stereo not shown) [Example 23, 2-Chloro-N-[5-(4-chloro-phenyl)-1-(2,4-dichloro-phenyl)-4,5-dihydro-1H-pyrazol-3-ylmethyl]-benzenesulfonamide] | 54.9 | 183 |  |
| O=S(=O)(NCC1=NN(c2ccc(Cl)cc2Cl)C(c2ccc(Cl)cc2)C1)C1=C(Cl)NC2SC=CN12 (stereo not shown) [Example 32, 6-Chloro-7,7a-dihydro-imidazo[2,1-b]thiazole-5-sulfonic acid [5-(4-chloro-phenyl)-1-(2,4-dichloro-phenyl)-4,5-dihydro-1H-pyrazol-3-ylmethyl]-amide] | 20.0 | 121 |  |
| Cc1cccc(Cl)c1S(=O)(=O)NCC1=NN(c2ccc(Cl)cc2Cl)C(c2ccc(Cl)cc2)C1 (stereo not shown) [Example 34, 2-Chloro-N-[5-(4-chloro-phenyl)-1-(2,4-dichloro-phenyl)-4,5-dihydro-1H-pyrazol-3-ylmethyl]-6-methyl-benzenesulfonamide] | 53.8 | 14.1 |  |
| Cc1ccc(F)cc1S(=O)(=O)NCC1=NN(c2ccc(Cl)cc2Cl)C(c2ccc(Cl)cc2)C1 (stereo not shown) [Example 38, N-[5-(4-Chloro-phenyl)-1-(2,4-dichloro-phenyl)-4,5-dihydro-1H-pyrazol-3-ylmethyl]-5-fluoro-2-methyl-benzenesulfonamide] | 74.0 | 4.4 |  |
| Cc1cc(S(=O)(=O)NCC2=NN(c3ccc(Cl)cc3Cl)C(c3ccc(Cl)cc3)C2)c(C)cc1Cl (stereo not shown) [Example 39, 4-Chloro-N-[5-(4-chloro-phenyl)-1-(2,4-dichloro-phenyl)-4,5-dihydro-1H-pyrazol-3-ylmethyl]-2,5-dimethyl-benzenesulfonamide] | 53.2 | 20.6 |  |
| Cc1cc(C)c(S(=O)(=O)NCC2=NN(c3ccc(Cl)cc3Cl)C(c3ccc(Cl)cc3)C2)c(C)c1 (stereo not shown) [Example 40, N-[5-(4-Chloro-phenyl)-1-(2,4-dichloro-phenyl)-4,5-dihydro-1H-pyrazol-3-ylmethyl]-2,4,6-trimethyl-benzenesulfonamide] | 51.9 | 97 | 43.9 |
| Cc1ccc(C)c(S(=O)(=O)NCC2=NN(c3ccc(Cl)cc3Cl)C(c3ccc(Cl)cc3)C2)c1 (stereo not shown) [Example 44, N-[5-(4-Chloro-phenyl)-1-(2,4-dichloro-phenyl)-4,5-dihydro-1H-pyrazol-3-ylmethyl]-2,5-dimethyl-benzenesulfonamide] | 54.1 | 15 | 7.3 |
